From ChEMBL document CHEMBL1134915, “Acyl dipeptides as reversible caspase inhibitors. Part 2: further optimization” (Bioorg Med Chem Lett, 2002) come the findings set out here.

SMILES strings stand for the structures.

The target of assay [1] is T1, Caspase-1 (Homo sapiens, UniProt P29466).
T1 sequence (P29466 whole entry): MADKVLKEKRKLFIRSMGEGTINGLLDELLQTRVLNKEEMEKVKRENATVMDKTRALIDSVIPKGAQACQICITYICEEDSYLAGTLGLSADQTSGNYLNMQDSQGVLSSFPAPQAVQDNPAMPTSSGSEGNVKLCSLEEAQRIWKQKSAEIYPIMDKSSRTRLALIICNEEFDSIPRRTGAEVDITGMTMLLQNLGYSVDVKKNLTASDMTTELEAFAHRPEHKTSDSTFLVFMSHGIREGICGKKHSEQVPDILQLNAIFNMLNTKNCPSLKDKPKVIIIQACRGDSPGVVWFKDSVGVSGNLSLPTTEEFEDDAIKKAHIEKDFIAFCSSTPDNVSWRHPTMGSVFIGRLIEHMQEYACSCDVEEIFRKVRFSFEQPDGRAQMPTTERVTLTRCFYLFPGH
The assay is described as follows: Inhibition of Caspase-1 enzyme.

Assay [2] concerns the target T2, Caspase-6 (Homo sapiens, UniProt P55212).
T2 sequence (P55212 whole entry): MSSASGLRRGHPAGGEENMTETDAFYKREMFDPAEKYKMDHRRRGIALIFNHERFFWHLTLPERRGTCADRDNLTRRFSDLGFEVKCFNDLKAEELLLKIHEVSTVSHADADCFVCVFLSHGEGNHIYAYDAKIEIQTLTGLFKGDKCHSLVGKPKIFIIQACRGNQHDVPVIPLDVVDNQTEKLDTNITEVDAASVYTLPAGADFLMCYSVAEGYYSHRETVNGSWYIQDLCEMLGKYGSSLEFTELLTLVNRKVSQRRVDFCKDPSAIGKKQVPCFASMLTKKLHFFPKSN
As to the kind of experiment: Inhibition of Caspase-6.

Assay [3] has as its target T3, Caspase-7 (Homo sapiens, UniProt P55210).
T3 sequence (P55210 whole entry): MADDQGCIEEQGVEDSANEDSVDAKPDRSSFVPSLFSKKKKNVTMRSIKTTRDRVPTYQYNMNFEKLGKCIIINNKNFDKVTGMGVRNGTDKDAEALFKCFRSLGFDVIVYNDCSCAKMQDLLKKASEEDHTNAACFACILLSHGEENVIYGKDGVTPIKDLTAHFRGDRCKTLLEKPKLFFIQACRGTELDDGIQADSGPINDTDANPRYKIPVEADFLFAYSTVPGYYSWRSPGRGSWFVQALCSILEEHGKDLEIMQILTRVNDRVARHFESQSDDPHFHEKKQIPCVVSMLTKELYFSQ
The assay is described as follows: Inhibition of Caspase-7 enzyme.

The target in assay [4] is T4, Caspase-3 (Homo sapiens, UniProt P42574).
T4 sequence (P42574 whole entry): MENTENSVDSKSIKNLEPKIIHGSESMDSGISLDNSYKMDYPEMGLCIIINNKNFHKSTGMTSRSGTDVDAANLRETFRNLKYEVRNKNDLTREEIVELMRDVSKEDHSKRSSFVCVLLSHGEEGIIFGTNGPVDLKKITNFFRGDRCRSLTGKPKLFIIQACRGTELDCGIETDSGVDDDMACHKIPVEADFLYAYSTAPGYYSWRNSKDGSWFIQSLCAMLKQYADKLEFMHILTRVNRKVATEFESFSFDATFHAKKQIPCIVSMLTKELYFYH
As to the kind of experiment: Inhibition of Caspase-3.

Assay [5] addresses T5, Caspase-8 (Homo sapiens, UniProt Q14790). As to the kind of experiment: Inhibition of Caspase-8 enzyme.
The target of assay [6] is T2, Caspase-6. The assay is described as follows: Inhibitory concentration of compound required against Caspase-6 enzyme compared to acylated dipeptides.
Assay [7] concerns the target T1, Caspase-1. The assay is described as follows: Inhibitory concentration of compound required against Caspase-1 enzyme compared to acylated dipeptides.
Assay [8] concerns the target T4, Caspase-3. The assay is described as follows: Inhibitory concentration of compound required against Caspase-3 enzyme compared to acylated dipeptides.
Assay [9] addresses T3, Caspase-7. As to the kind of experiment: Inhibitory concentration of compound required against Caspase-7 enzyme compared to acylated dipeptides.
Assay [10] has as its target T5, Caspase-8. As to the kind of experiment: Inhibitory concentration of compound required against Caspase-8 enzyme compared to acylated dipeptides.

A word on the IC50: it is the concentration at which inhibition is half-maximal.

T5 sequence (Q14790 217-374 limits assumed): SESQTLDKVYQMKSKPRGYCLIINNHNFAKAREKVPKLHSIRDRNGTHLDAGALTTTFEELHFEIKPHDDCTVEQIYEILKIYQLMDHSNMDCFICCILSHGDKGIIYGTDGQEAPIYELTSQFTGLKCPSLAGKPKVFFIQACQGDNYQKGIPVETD
T5 sequence (Q14790 385-479 limits assumed): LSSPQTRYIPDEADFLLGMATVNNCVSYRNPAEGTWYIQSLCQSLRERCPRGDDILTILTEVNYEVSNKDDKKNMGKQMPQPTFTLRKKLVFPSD

As to `CC(C)C(NC(=O)COc1cccc2c(NS(=O)(=O)C(F)(F)F)cccc12)C(=O)N[C@H]1CC(=O)OC1O` (some centres not stated), the IC50 was found to be 127 nM on Caspase-1 [1]; 1010 nM against Caspase-6 [2]; 11000 nM against Caspase-7 [3]; 207 nM on Caspase-3 [4]; 615 nM against Caspase-8 [5].

Turning to `CC(C)C(NC(=O)COc1cc2ccccc2cc1NS(=O)(=O)C(F)(F)F)C(=O)N[C@H]1CC(=O)OC1O` (some centres not stated), the IC50 on Caspase-1 [1] came to 2180 nM; against Caspase-6 [2], 3030 nM; on Caspase-7 [3], 43700 nM; against Caspase-3 [4] it was 1920 nM; at Caspase-8 [5], 1420 nM.

On to `CC(C)CC(NC(=O)[C@@H](CCC(=O)O)Oc1cccc2ccccc12)C(=O)N[C@H]1CC(=O)OC1O` (some centres not stated), for which the IC50 against Caspase-6 [2] worked out at 15 nM; against Caspase-7 [3] it was 587 nM; at Caspase-3 [4], 21 nM; on Caspase-8 [5] it was 12 nM.

Take `CC(C)C(NC(=O)COc1c(C(=O)O)ccc2ccccc12)C(=O)N[C@H]1CC(=O)OC1O` (some centres not stated): the IC50 at Caspase-1 [1] stood at 385 nM; against Caspase-6 [2], 1430 nM; on Caspase-7 [3], 1650 nM; at Caspase-3 [4] it was 54 nM; against Caspase-8 [5] it was 48 nM.

For `CC(C)CC(NC(=O)CNc1cccc(Oc2ccccc2)c1)C(=O)N[C@H]1CC(=O)OC1O` (some centres not stated), the IC50 on Caspase-1 [1] came to 330 nM; at Caspase-6 [2], 308 nM; against Caspase-7 [3], 2670 nM; against Caspase-3 [4] it was 230 nM; against Caspase-8 [5], 670 nM.

As for `CC(C)CC(NC(=O)[C@H](CCC(=O)O)Oc1cccc2ccccc12)C(=O)N[C@H]1CC(=O)OC1O` (some centres not stated), the IC50 on Caspase-6 [2] is 3.5 nM; at Caspase-7 [3] it was 130 nM; against Caspase-3 [4], 3.8 nM; at Caspase-8 [5] it was 31 nM.

Consider `CC(C)CC(NC(=O)CNCC(Cc1ccccc1)c1ccccc1)C(=O)N[C@H]1CC(=O)OC1O` (some centres not stated), for which the IC50 at Caspase-1 [1] is 790 nM; against Caspase-6 [2], 589 nM; against Caspase-7 [3], 2920 nM; against Caspase-3 [4], 320 nM; against Caspase-8 [5], 990 nM.

Consider `CC(C)C[C@H](NC(=O)C(C)Nc1cccc2ccccc12)C(=O)N[C@H]1CC(=O)OC1O` (some centres not stated), for which the IC50 on Caspase-6 [2] was 310 nM; on Caspase-7 [3] it was 7240 nM; on Caspase-3 [4] it was 512 nM; at Caspase-8 [5], 17 nM.

Take `CC(C)C(NC(=O)CCOc1cccc2ccccc12)C(=O)N[C@H]1CC(=O)OC1O` (some centres not stated): the IC50 was determined as 250 nM at Caspase-1 [1]; 4600 nM against Caspase-6 [2]; 37000 nM on Caspase-7 [3]; 4400 nM on Caspase-3 [4]; 19600 nM on Caspase-8 [5].

For the compound `CC(C)CC(NC(=O)CNc1cccc2ccccc12)C(=O)N[C@H]1CC(=O)OC1O` (some centres not stated), the IC50 stood at 33 nM at Caspase-1 [1]; 37 nM against Caspase-6 [2]; 1320 nM against Caspase-7 [3]; 13 nM on Caspase-3 [4]; 7.6 nM against Caspase-8 [5].

On to `CC(C)C(NC(=O)CNc1cccc2ccccc12)C(=O)N[C@H]1CC(=O)OC1O` (some centres not stated), for which the IC50 amounted to 15 nM on Caspase-1 [1]; 7000 nM against Caspase-6 [2]; 6140 nM on Caspase-7 [3]; 1550 nM against Caspase-3 [4]; 450 nM on Caspase-8 [5].

Regarding `CC(C)C(NC(=O)COc1cccc2ccccc12)C(=O)N[C@H]1CC(=O)OC1O` (some centres not stated), the half-maximal inhibitory concentration (IC50) was 336 nM on Caspase-1 [1]; greater than 10000 nM against Caspase-6 [2]; 2100 nM against Caspase-7 [3]; 355 nM at Caspase-3 [4]; 1200 nM against Caspase-8 [5].

On to `CC(C)C(NC(=O)COc1ccc2ccccc2c1C(=O)O)C(=O)N[C@H]1CC(=O)OC1O` (some centres not stated), for which the IC50 against Caspase-1 [1] was 2960 nM; at Caspase-6 [2] it was 3610 nM; against Caspase-7 [3] it was 10900 nM; at Caspase-3 [4] it was 401 nM; against Caspase-8 [5], 733 nM.

`CC(C)C(NC(=O)COc1cc2ccccc2cc1C(=O)O)C(=O)N[C@H]1CC(=O)OC1O` (some centres not stated): the IC50 on Caspase-1 [1] was 1890 nM; against Caspase-6 [2] it was 1900 nM; against Caspase-7 [3] it was 17000 nM; at Caspase-3 [4], 731 nM; against Caspase-8 [5], 200 nM.

As for `CC(=O)N[C@@H](CC(=O)O)C(=O)N[C@@H](CCC(=O)O)C(=O)N[C@H](C(=O)N[C@H]1CC(=O)OC1O)C(C)C` (some centres not stated), the IC50 was 10 nM on Caspase-6 [6]; 50 nM against Caspase-1 [7]; 3.5 nM against Caspase-3 [8]; 10 nM against Caspase-7 [9]; 80 nM on Caspase-8 [10].
